# Measured values published in PMC11571109, “Covalent Inhibitors of S100A4 Block the Formation of a Pro-Metastasis Non-Muscle Myosin 2A Complex” (Journal of Medicinal Chemistry, 2024).
# Several values for one entry are separate records, joined by “and”; a condition that tells them apart may be missing. Equal entries are not always repeated. Where two headings read alike, the source gives them in different places.
# Tests used:
# S100A11-AnII = target: T1, S100A11-AnII (Homo sapiens, UniProt P31949); assay: HTRF (TR-FRET) peptide displacement S100A11-AnII; assay type: binding; conditions: supplementary CSV
# T1 construct: made in house; host or cells: E. coli Rosetta (DE3); peptide from LifeTein
# T1 sequence (P31949 1-105): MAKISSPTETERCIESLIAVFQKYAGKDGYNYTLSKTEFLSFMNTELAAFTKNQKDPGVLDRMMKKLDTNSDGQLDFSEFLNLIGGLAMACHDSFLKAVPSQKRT
# Description: Table S4: Compound IDs and SMILES … S30 […]
# (§1) Peptide displacement assay development
# (§2) addition of an inhibitor.
# (§3) Assay was done in 384-well
# (§4) After 2 hours of incubation at
# (§5) concentration range to avoid the saturation of the signal.
# S100A4-NMII [1] = target: T2, S100A4-NMII (Homo sapiens, UniProt P26447); assay: HTRF (TR-FRET) peptide displacement S100A4-NMII (MPN peptide); assay type: binding; set-up: made in house; host or cells: E. coli Rosetta (DE3); peptide from LifeTein; conditions: supplementary CSV
# T2 sequence (P26447 whole entry): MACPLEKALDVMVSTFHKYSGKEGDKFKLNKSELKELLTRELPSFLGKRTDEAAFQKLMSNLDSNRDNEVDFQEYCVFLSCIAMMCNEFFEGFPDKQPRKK
# Description: as §1, §2, §3, §4, §5
# Log D = assay type: physicochemical
# Source text: (§6) Selected compounds were screened for aqueous solubility in PBS (pH 7.4), metabolic stability in mouse liver microsomes (MLM) as a measure of clearance, Log D, and permeability. ADME studies reported in this work were independently performed by WuXi AppTec (Shanghai, China). Raw data are provided upon request.
# A549 = assay: Cell proliferation assay (CellTiter-Glo), A549; assay type: cell-based; conditions: Homo sapiens, 48 h, supplementary CSV
# Description: (§7) To further characterize the potency of the phenylproline derivatives on cancer cells, their effect on proliferation has been measured on HeLa and A549 cell lines, which are known to express S100A4.[44],[45] A cell proliferation assay was performed by cultivating cells for 48 h in complete media with various concentrations of inhibitors, up to 30 μM. At the end of the treatment, luminescence was measured after the addition of the CellTiter-Glo reagent (Figure 7A).
# (§8) The day before, cells were seeded in a white, cell-culture treated 384-well plates in complete high-glucose DMEM to reach a confluency of 25% on the day of the experiment. The next day, the medium was replaced by complete, high-glucose, phenol-red-free medium, and cells were incubated for 48 h in the presence of an inhibitor or DMSO as a control. Aliquots of the supernatant were harvested, diluted 100 times in 200 mM Tris-HCl, pH 7.3, 10% glycerol, and 1% BSA buffer, and used for cyctotoxicity measurement by using the LDH-Glo cytotoxicity assay kit (Promega). In parallel, the CellTiter-Glo (Promega) reagent was added to the cells to measure cell proliferation. Both experiments were done according to the manufacturer’s recommendations, and the luminescence was quantified using the FSX plate reader (Pherastar).
# [2] = Cytotoxicity assay (LDH-Glo), A549; assay type: cell-based; conditions: human, A549 cells, supplementary CSV, read-out: A549 Cell toxicity IC50
# Description: as §7, §8
# [3] = Aqueous solubility in PBS (pH 7.4); assay type: physicochemical; conditions: aqueous buffer; PBS pH 7.4; read-out: aq. solubility
# Source text: as §6
# S100A4-NMII [4] = target: T2, S100A4-NMII; assay: cell-based
# Source text: First, we performed IC50 measurements of protein–protein interaction in the presence of inhibitors using NanoBret technology. Briefly, S100A4-HaloTag and NMII-NanoLuc were expressed in 293HEK cells to allow signal detection from donor (NanoLuc) and acceptor (HaLoTag) proximity upon S100A4-NMII interaction.
# Assay development was done according to the NanoBRet-NanoGlo detection system manufacturer’s recommendations (Promega) by testing each combination of N- and C-termini of HaloTag and NanoLuc fusion constructs. 293HEK cells were seeded on 6-well plates in complete DMEM media and transfected 6 h later with S100A4-NanoLuc (1.8 μg) and NMII-HaloTag (0.2 μg) constructs using the JetPrime transfection reagent (Polyplus Transfection, Strasbourg, France). After an overnight incubation, cells were resuspended in phenol-red-free, 4% serum media in the presence of the HaloTag NanoBret 618 ligand or DMSO for control. […] NanoBret NanoGlo substrates were added to cells prior to reading the plate with the Pherastar FSX plate reader. The raw Nanobret ratio was calculated by dividing the acceptor emission value (618 nm) by the donor emission value (460 nm) for each sample. The mean NanoBret data were calculated by subtracting the background ratio (no acceptor control) from the sample ratio.
# P-gp (MDR1) = assay: Cell permeability MDR1-MDCK II; assay type: in vitro ADME; conditions: dog
# Source text: as §6
# [5] = Cytotoxicity assay (LDH-Glo), HeLa; assay type: cell-based; conditions: human, HeLa cells, supplementary CSV, read-out: HeLa Cell toxicity IC50
# Description: as §7, §8
# HeLa = assay: Cell proliferation assay (CellTiter-Glo), HeLa; assay type: cell-based; conditions: Homo sapiens, 48 h, supplementary CSV
# Description: as §7, §8
# [6] = Metabolic stability in mouse liver microsomes (MLM); assay type: in vitro ADME; conditions: for MLM, Cli / half-life: mouse liver microsomes; for half-life: read-out: MLM, T1/2
# Source text: as §6
# S100A4 [7] = target: T3, S100A4 (Homo sapiens, UniProt P26447); assay: Protein labeling detection by mass spectrometry, S100A4; conditions: 10 μM S100A4, 100 μM inhibitor, 1 h
# T3 sequence (P26447 whole entry): as above
# Description: To confirm its mechanism of inhibition, we performed a protein labeling assay. S100A4 protein was incubated in the presence of BAY11–7082 and analyzed by mass spectrometry (Figure 1C).
# The compounds and their activity on S100A4-NMII and S100A11-AnII are shown in Figure 2A,B. To investigate their covalent activity, we then performed a protein labeling assay by incubating S100A4 in the presence of the inhibitors in parallel.
# The mixture was incubated for 1 h at room temperature in the dark and analyzed by mass spectrometry using a 1290 Infinity coupled to a 6530 Accurate-Mass Q-TOF LC/MS (Agilent Technologies). Results were analyzed using the Qualitative Analysis MassHunter Acquisition Data and the Bioconfirm software.
# [8] = GSH reactivity assay (LCMS); assay type: physicochemical; conditions: 1 mM glutathione (GSH) in HEPES buffer, pH 7.5; read-out: GSH t1/2 (converted)
# Description: GSH is the most abundant low molecular weight thiol compound in the cell. It protects cells from oxidative damage and the toxicity of xenobiotic electrophiles and maintains redox homeostasis.[43] We speculated that a robust and specific reaction of inhibitors would not be drastically affected by competitive cysteines in the reaction.
# 50 μM of each compound was incubated at room temperature with 1 mM GSH in 50 mM HEPES, 20 mM NaCl, pH 7.5, and 1.3% DMSO. At each time point, an aliquot was taken and analyzed by LCMS. The percentage of the compound remaining was determined by comparing the area of the peaks of the compound and the GSH adduct. The natural logarithm of the results was fitted to a linear regression, and t1/2 was calculated as t1/2 = ln(2)/–slope.
# HeLa cells = assay: Cell migration (wound healing) assay, HeLa; assay type: cell-based; conditions: 8 μM, 36 h
# Description: We next investigated whether phenylproline derivatives would inhibit S100A4 activity by affecting cell migration. HeLa and A549 cells were challenged for a cell migration assay in the presence of phenylproline derivatives. A monolayer of cells was scratched and treated with various concentrations of inhibitors for 36 h. Cell migration was monitored automatically using the Incucyte live-cell imager by imaging cells every 2 h.
# The day before the experiment, cells were seeded in a black, clear-bottom, collagen-coated 96-well plate in complete high-glucose DMEM to reach nearly full confluency the next day. On the day of the experiment, a wound in the cell layer was made, and the media were replaced with media containing phenylproline derivatives. Cells were incubated for 36 h in an Incucyte cell-imager (Sartorius, Germany), allowing for automated cell imaging every 2 h. The analysis was done by measuring the wound area using ImageJ and plugging the wound healing tool.
# [9] = system: P-glycoprotein (P-gp, MDR1); assay: Cell permeability MDR1-MDCK II; assay type: in vitro ADME; conditions: dog
# Source text: as §6
# S100A4 [10] = target: T3, S100A4; assay: biochemical
# Description: As a starting point to discover new S100 inhibitors, we used a peptide-displacement assay based on the Amplified Luminescent Proximity Homogeneous Assay (AlphaScreen) of a His-tagged protein interacting with a biotinylated peptide and its ability to be disrupted by small molecule inhibitors of protein interactions.[31] We took advantage of the ability of several S100 proteins to interact with the TRTK-12 peptide.[32] The optimal experimental conditions were determined by performing a protein versus peptide titration for each protein. Serial dilutions of purified 6His-S100 protein (S100A2, S100A4, S100A5, or S100B) were mixed with a serial dilution of a biotinylated TRTK-12 peptide in the presence of 1 mM calcium to allow conformational changes and activation of S100 proteins. […]
# (§9) A 4 989 compound library was screened using an Alpha-Screen assay. […] Twelve wells per plate were used as solvent controls and as a reference for inhibition calculation, which was calculated as inhibition (%) = (1 – (Fsample– Fbackground)/(Fsolvent – Fbackground)) × 100
# (§10) The best hits from the single-shot experiment were tested for IC50 determination using the HTRF assay as described above. […] The percentage of inhibition was calculated as described above and was used for IC50 determination. […]
# S100B = S100B (Homo sapiens, UniProt P04271); conditions: read-out: IC50 S100B - TRTK peptide displacement; AlphaScreen, duplicate, 50 μM top FAC
# Chain of S100B (P04271 whole entry): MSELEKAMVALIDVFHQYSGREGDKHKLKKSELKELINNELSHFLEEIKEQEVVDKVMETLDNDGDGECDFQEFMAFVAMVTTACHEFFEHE
# Description: (§11) As a starting point to discover new S100 inhibitors, we used a peptide-displacement assay based on the Amplified Luminescent Proximity Homogeneous Assay (AlphaScreen) of a His-tagged protein interacting with a biotinylated peptide and its ability to be disrupted by small molecule inhibitors of protein interactions.[31] We took advantage of the ability of several S100 proteins to interact with the TRTK-12 peptide.[32] The optimal experimental conditions were determined by performing a protein versus peptide titration for each protein. Serial dilutions of purified 6His-S100 protein (S100A2, S100A4, S100A5, or S100B) were mixed with a serial dilution of a biotinylated TRTK-12 peptide in the presence of 1 mM calcium to allow conformational changes and activation of S100 proteins. The protein–peptide ratio that allows the highest signal to background, without signal saturation, was chosen as the assay condition for each protein to perform the first screening campaign (Figure S1 and Table S1). An internal diversity library of 4 989 small molecules was screened at a single-dose of 50 μM in duplicate in a 384-well plate format. The four S100 protein screening experiments were performed in parallel. […] We also selected the hits based on their ability to show specificity for one protein; compounds showing 50% or more inhibition for other S100 proteins were not selected (Supporting Information).
# as §9, with “assay. 6His-Tag-S100A2, -S100A4, -S100A5, and -S100B were used in combination with TRTK-Biotin peptide under conditions described previously.” for “assay.”
# as §10
# S100A2 = S100A2 (Homo sapiens, UniProt P29034); conditions: read-out: IC50 S100A2 - TRTK peptide displacement; AlphaScreen, duplicate, 50 μM top FAC
# Chain of S100A2 (P29034 whole entry): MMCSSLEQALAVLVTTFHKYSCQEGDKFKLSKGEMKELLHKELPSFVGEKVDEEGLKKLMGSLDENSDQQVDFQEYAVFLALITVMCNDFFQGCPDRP
# Description: as §11
# as §9, with “assay. 6His-Tag-S100A2, -S100A4, -S100A5, and -S100B were used in combination with TRTK-Biotin peptide under conditions described previously.” for “assay.”
# as §10
# S100A5 = S100A5 (Homo sapiens, UniProt P33763); conditions: read-out: IC50 S100A5 - TRTK peptide displacement; AlphaScreen, duplicate, 50 μM top FAC
# Chain of S100A5 (P33763 whole entry): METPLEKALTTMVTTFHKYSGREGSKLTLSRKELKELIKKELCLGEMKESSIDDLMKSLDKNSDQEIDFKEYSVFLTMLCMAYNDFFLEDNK
# Description: as §11
# as §9, with “assay. 6His-Tag-S100A2, -S100A4, -S100A5, and -S100B were used in combination with TRTK-Biotin peptide under conditions described previously.” for “assay.”
# as §10
# [11] = read-out: S100A4 IC50 HTRF assay
# [12] = MDCK-MDR1, A to B, read-out: MDR1-MDCK II, AB Papp
# [13] = MDCK-MDR1, B to A, read-out: MDR1-MDCK II, BA Papp
smiles,measurement,setting,value
CC(C)c1c(-c2cnn(CCNC(=O)/C=C/C(=O)c3ccccc3)c2)[nH]c2c(C#N)cnn2c1=O [2c],IC50,S100A11-AnII,5.6 µM
same,IC50,S100A4-NMII [1]; [11],1.79 µM
O=C(Nc1cccc(Cl)c1)[C@H]1C[C@H](c2ccccc2)CN1C(=O)CCl [compound 5],IC50,S100A11-AnII,33.8 µM
same,IC50,S100A4-NMII [1]; [11],7.4 µM
O=C(CCl)Nc1ccc2c(c1)CN(CCc1cnn(-c3nccc4c(=O)[nH]cnc34)c1)CC2 [2d],IC50,S100A11-AnII,> 30 µM
same,IC50,S100A4-NMII [1]; [11],9.24 µM
CC(C)C[C@@H](NC(=O)[C@H]1C[C@H](c2ccccc2)CN1C(=O)CCl)c1nc2ccccc2[nH]1 [5c],logD,Log D,4.64
same,IC50,A549,11.9 µM
same,IC50 at 48 h,[2],37.7 µM
same,IC50,S100A11-AnII,36.8 µM
same,solubility,[3],1.69 µg/mL and 3.73 µM
same,IC50,S100A4-NMII [4],11.1 µM
same,Papp,P-gp (MDR1); [12],12.6 ×10⁻⁶ cm/s
same,Papp,P-gp (MDR1); [13],38.8 ×10⁻⁶ cm/s
same,IC50 at 48 h,[5],29.8 µM
same,IC50,"S100A4-NMII [1]; S100A4 + 1mM GSH IC50 HTRF assay, 1 mM GSH",1.57 µM
same,IC50,S100A4-NMII [1]; [11],0.77 µM
same,IC50,HeLa,4.5 µM
same,microsomal stability MLM (in words),[6],moderate MLM stability
same,"MLM, Cli",[6],209 μL/min/mg protein
same,half-life,[6],7 min
same,S100A4 covalent modification pattern (in words),S100A4 [7],single shifts
same,half-life at 50 μM,[8],408 min
O=C(Nc1cccc(Cl)c1)[C@H]1C[C@H](c2ccccc2)CN1C(=O)CCl [5a],logD,Log D,3.95
same,IC50,A549,25 µM
same,wound healing (cell migration),HeLa cells,drastically reduced wound healing
same,IC50 at 48 h,[2],27.1 µM
same,IC50,S100A11-AnII,> 30 µM
same,solubility,[3],23.9 µg/mL and 63.4 µM
same,IC50,S100A4-NMII [4],20 µM
same,Papp,[9]; [12],0.8 ×10⁻⁶ cm/s
same,Papp,[9]; [13],< 26.4 ×10⁻⁶ cm/s
same,IC50 at 48 h,[5],55.8 µM
same,IC50,S100A4-NMII [1]; [11],4.22 µM
same,IC50,HeLa,3.1 µM
same,"MLM, Cli",[6],332 μL/min/mg protein
same,half-life,[6],4 min
same,S100A4 covalent modification pattern (in words),S100A4 [7],single shifts
same,half-life at 50 μM,[8],564 min
Cc1ccc(S(=O)(=O)/C=C/C#N)cc1 [compound 1],IC50,S100A4 [10],< 1000 nM
same,IC50,"S100A4 [10]; read-out: IC50 S100A4 - TRTK peptide displacement, AlphaScreen, duplicate, 50 μM top FAC, 1 mM calcium",1230 nM
same,IC50,S100B,> 30 µM
same,IC50,S100A2,> 30 µM
same,IC50,S100A5,> 30 µM
COc1cccc(N2CC(NC(=O)[C@H]3C[C@H](c4ccccc4)CN3C(=O)CCl)CC2=O)c1 (stereo partly shown) [5f],IC50,S100A11-AnII,> 30 µM
same,IC50,S100A4-NMII [1]; [11],4.75 µM
CC(C)c1c(-c2cnn(C3CCN(C(=O)/C=C/C(=O)c4ccccc4)CC3)c2)[nH]c2c(C#N)cnn2c1=O [2b],IC50,S100A11-AnII,1.35 µM
same,IC50,S100A4-NMII [1]; [11],0.48 µM
same,S100A4 covalent modification pattern (in words),S100A4 [7],multiple adduct additions
